Experimental data published in patent publication US9174980B2, “Heterocyclic compounds as inhibitors of leukotriene production” (Boehringer Ingelheim International GmbH, priority 2012, dated 2015).

Columns and labels:
[1] = molecular target: T1, recombinant human FLAP protein (Homo sapiens, UniProt P20292); assay: FLAP binding assay (Scintillation Proximity Assay, displacement of [125I]L-691,831); settings: read-out: Human FLAP SPA Binding (IC50 nM)
T1 construct: made in house; host or cells: Sf9 insect cells (membrane fraction, 100,000 x g pellet)
T1 sequence (P20292 1-161): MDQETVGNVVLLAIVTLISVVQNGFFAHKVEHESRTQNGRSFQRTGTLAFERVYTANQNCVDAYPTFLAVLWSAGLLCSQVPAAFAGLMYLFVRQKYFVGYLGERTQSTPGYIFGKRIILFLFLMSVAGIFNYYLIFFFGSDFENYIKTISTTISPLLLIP
Description: Compounds are assessed for the ability to bind to FLAP in a binding assay that measures compound-specific displacement of an iodinated (^125I) FLAP inhibitor via a Scintillation Proximity Assay format (adapted from S. Charleson et al., Mol. Pharmacol., 1992, 41, 873-879).
Cell pellets produced from sf9 insect cells expressing recombinant human FLAP protein are resuspended in buffer A [15 mM Tris-HCl (pH 7.5), 2 mM MgCl2, 0.3 mM EDTA, 1 mM PMSF]. The cells are lysed with a Dounce homogenizer and the material is centrifuged at 10,000×g for 10 minutes. The supernatant is then collected and centrifuged at 100,000×g for 60 minutes. To prepare membrane protein for an assay, an aliquot of the 100,000×g pellet is resuspended in 1 ml of buffer A, Dounce homogenized, and finally subjected to polytron mixing (30 seconds). Membrane protein (25 μl, 5 μg) is mixed with WGA SPA beads (Amersham) and stirred for 1 h. To an assay plate (Perkin Elmer FlexiPlate) is added 25 μl of test compound prepared in Binding buffer [100 mM Tris (pH 7.5), 140 mM NaCl, 5% glycerol, 2 mM EDTA, 0.5 mM TCEP, 0.05% Tween 20], 25 μl of [^125I]L-691,831 (an iodinated analog of MK-591, Charleson et al. Mol. Pharmacol., 41, 873-879, 1992) and finally 50 μl of the bead/protein mixture. (final concentrations: beads, 200 μg/well; protein, 5 μg/well; [^125I] probe, 0.08 nM/well (17 nCi/well). The plates are shaken for 2 h before reading on a Microbeta plate reader. Non-specific binding is determined by the addition of 10 μM cold L-691,831 compound.

[2] = tested on: synthesis of LTB4 in human whole blood; assay: Human whole blood assay (calcimycin-stimulated LTB4 synthesis); assay type: cell-based; settings: Homo sapiens; read-out: Human Whole Blood LTB4 Assay for FLAP (IC50 nM)
Description: Compounds are additionally tested in a human whole blood assay to determine their ability to inhibit the synthesis of LTB4 in a cellular system. Compounds are combined with heparinized human whole blood and incubated for 15 minutes at 37° C. Calcimycin (20 μM final, prepared in phosphate-buffered saline, pH 7.4) is then added and the mixture is incubated for another 30 minutes at 37° C. The samples are centrifuged for 5 min at low speed (1500×g) and the plasma layer is removed. Plasma LTB4 concentrations are then measured using an antibody-based homogenous time-resolved fluorescence method (CisBio, Bedford, Mass.).

Compound	IC50 [1]	IC50 [2]
COCC(C)(c1ccc(-c2cnc(N)nc2)cc1)c1cn(CC(=O)O)c2ncccc12 (stereo not shown) [Example 55, (3-{2-[4-(2-aminopyrimidin-5-yl)phenyl]-1-methoxypropan-2-yl}-1H-pyrrolo[2,3-b]pyridin-1-yl)acetic acid]	1100 nM	> 5000 nM
COCC(C)(c1ccc(-c2cnc(N)nc2)cc1)c1cn(C)c2ncccc12 (stereo not shown) [Example 56, 5-{4-[1-methoxy-2-(1-methyl-1H-pyrrolo[2,3-b]pyridin-3-yl)propan-2-yl]phenyl}pyrimidin-2-amine]	160 nM	> 5000 nM
COc1cccc2[nH]cc(C(C)(c3ccc(-c4cnc(N)nc4)cc3)C(C)C)c12 (stereo not shown) [Example 57, 5-{4-[2-(4-methoxy-1H-indol-3-yl)-3-methylbutan-2-yl]phenyl}pyrimidin-2-amine]	37 nM	2600 nM
CC(C)C(C)(c1ccc(-c2cnc(N)nc2)cc1)c1c[nH]c2cccc(F)c12 (stereo not shown) [Example 58, 5-{4-[2-(4-fluoro-1H-indol-3-yl)-3-methylbutan-2-yl]phenyl}pyrimidin-2-amine]	1.1 nM	69 nM
CC(C)C(C)(c1ccc(-c2cnc(N)nc2)cc1)c1c[nH]c2c(F)cccc12 (stereo not shown) [Example 59, 5-{4-[2-(7-fluoro-1H-indol-3-yl)-3-methylbutan-2-yl]phenyl}pyrimidin-2-amine]	0.65 nM	330 nM
CC(C)C(C)(c1ccc(-c2cnc(N)nc2)cc1)c1c[nH]c2cc(F)ccc12 (stereo not shown) [Example 60, 5-{4-[2-(6-fluoro-1H-indol-3-yl)-3-methylbutan-2-yl]phenyl}pyrimidin-2-amine]	0.86 nM	170 nM
CC(C)C(C)(c1ccc(-c2cnc(N)nc2)cc1)c1cc2ccc(F)cc2[nH]1 (stereo not shown) [Example 61, 5-{4-[2-(6-fluoro-1H-indol-2-yl)-3-methylbutan-2-yl]phenyl}pyrimidin-2-amine]	9.3 nM	1200 nM
CC(C)C(C)(c1ccc(-c2cnc(N)nc2)cc1)c1cc2c(F)cccc2[nH]1 (stereo not shown) [Example 62, 5-{4-[2-(4-fluoro-1H-indol-2-yl)-3-methybutan-2-yl]phenyl}pyrimidin-2-amine]	18 nM	2300 nM
CC(C)C(C)(c1ccc(-c2cnc(N)nc2)cc1)c1c[nH]c2ccc(F)cc12 (stereo not shown) [Example 63, 5-{4-[2-(5-fluoro-1H-indol-3-yl)-3-methylbutan-2-yl]phenyl}pyrimidin-2-amine]	3 nM	440 nM
CC(C)C(C)(c1ccc(OCc2ccccn2)cc1)c1c[nH]c2cc(C(=O)O)ccc12 (stereo not shown) [Example 64, 3-[1,2-dimethyl-1-[4-(2-pyridylmethoxy)phenyl]propyl]-1H-indole-6-carboxylic acid]	0.85 nM	1400 nM
CC(C)C(C)(c1ccc(-c2cnc(N)nc2)cc1)c1c[nH]c2cc(-c3nnc(N)o3)ccc12 (stereo not shown) [Example 65, 5-[3-[1-[4-(2-aminopyrimidin-5-yl)phenyl]-1,2-dimethyl-propyl]-1H-indol-6-yl]-1,3,4-oxadiazol-2-amine]	0.57 nM	1800 nM
CC(C)C(C)(c1ccc(-c2ccc(N)nc2)cc1)c1c[nH]c2ccccc12 (stereo not shown) [Example 66, 5-{4-[2-(1H-indol-3-yl)-3-methylbutan-2-yl]phenyl}pyridin-2-amine]	1.2 nM	170 nM
CC(C)C(C)(c1ccc(-c2cnc(N)nc2)cc1)c1c[nH]c2cc(F)c(F)cc12 (stereo not shown) [Example 67, 5-{4-[2-(5,6-difluoro-1H-indol-3-yl)-3-methylbutan-2-yl]phenyl}pyrimidin-2-amine]	3 nM	340 nM
CC(C)C(C)(c1ccc(-c2cnc(N)nc2)cc1)c1c[nH]c2cc(-c3nnn[nH]3)ccc12 (stereo not shown) [Example 68, 5-(4-[3-methyl-2-[6-(1H-tetrazol-5-yl)-1H-indol-3-yl]butan-2-yl}phenyl)pyrimidin-2-amine]	1 nM	> 5000 nM
Nc1ncc(-c2ccc(C3(c4nnc(-c5ccccc5)[nH]4)CCOCC3)cc2)cn1 [Example 69, 5-{4-[4-(5-phenyl-4H-1,2,4-triazol-3-yl)tetrahydro-2H-pyran-4-yl]phenyl}pyrimidin-2-amine]	120 nM	3100 nM
COC(=O)c1ccc2c(C(C)(c3ccc(-c4cnc(N)nc4)cc3)C(C)C)c[nH]c2c1 (stereo not shown) [Example 70, methyl 3-{2-[4-(2-aminopyrimidin-5-yl)phenyl]-3-methylbutan-2-yl}-1H-indole-6-carboxylate]	0.9 nM	240 nM
CC(C)C(C)(c1ccc(-c2ccc(N)nc2)cc1)c1c[nH]c2cc(-c3nnc(N)o3)ccc12 (stereo not shown) [Example 71, 5-(4-{2-[6-(5-amino-1,3,4-oxadiazol-2-yl)-1H-indol-3-yl]-3-methylbutan-2-yl}phenyl)pyridin-2-amine]	0.72 nM	1900 nM
Cn1ccc(C(O)(c2ccc(-c3cnc(N)nc3)cc2)C(C)(C)C)n1 (stereo not shown) [Example 72, 1-[4-(2-aminopyrimidin-5-yl)phenyl]-2,2-dimethyl-1-(1-methyl-1H-pyrazol-3-yl)propan-1-ol]	110 nM	2100 nM
CC(C)C(C)(c1ccc(-c2cnc(N)nc2)cc1)c1cn(Cc2nnn[nH]2)c2ccccc12 (stereo not shown) [Example 73, 5-(4-{3-methyl-2-[1-(1H-tetrazol-5-ylmethyl)-1H-indol-3-yl]butan-2-yl}phenyl)pyrimidin-2-amine]	1.3 nM	> 5000 nM
Nc1ncc(-c2ccc(C3(c4n[nH]c(-c5cccnc5)n4)CCOCC3)cc2)cn1 [Example 74, 5-(4-{4-[5-(pyridin-3-yl)-1H-1,2,4-triazol-3-yl]tetrahydro-2H-pyran-4-yl}phenyl)pyrimidin-2-amine]	780 nM	3500 nM
Nc1ncc(-c2ccc(C3(c4nc5ccccc5[nH]4)CCOCC3)cc2)cn1 [Example 75, 5-{4-[4-(1H-benzimidazol-2-yl)tetrahydro-2H-pyran-4-yl]phenyl}pyrimidin-2-amine]	380 nM	> 5000 nM
CC(C)C(C)(c1ccc(-c2cnc(N)nc2)cc1)c1c[nH]c2c(-c3nnc(N)o3)cccc12 (stereo not shown) [Example 76, 5-(4-{2-[7-(5-amino-1,3,4-oxadiazol-2-yl)-1H-indol-3-yl]-3-methylbutan-2-yl}phenyl)pyrimidin-2-amine]	1.1 nM	250 nM
CC(C)C(C)(c1ccc(-c2cnc(N)nc2)cc1)c1c[nH]c2cc(C(=O)N3CCOCC3)ccc12 (stereo not shown) [Example 77, (3-{2-[4-(2-aminopyrimidin-5-yl)phenyl]-3-methylbutan-2-yl}-1H-indol-6-yl)(morpholin-4-yl)methanone]	1.7 nM	640 nM
CC(C)C(C)(c1ccc(-c2cnc(N)nc2)cc1)c1c[nH]c2cc(C(=O)N3CC(O)C3)ccc12 (stereo not shown) [Example 78, (3-{2-[4-(2-aminopyrimidin-5-yl)phenyl]-3-methylbutan-2-yl}-1H-indol-6-yl)(3-hydroxyazetidin-1-yl)methanone]	1.6 nM	> 5000 nM
CC(C)C(C)(c1ccc(-c2cnc(N)nc2)cc1)c1c[nH]c2cc(C(=O)N(C)CCO)ccc12 (stereo not shown) [Example 79, 3-{2-[4-(2-aminopyrimidin-5-yl)phenyl]-3-methylbutan-2-yl}-N-(2-hydroxyethyl)-N-methyl-1H-indole-6-carboxamide]	8.5 nM	2600 nM
CC(C)C(C)(c1ccc(-c2cnc(N)nc2)cc1)c1c[nH]c2cc(C(=O)N3CCC(O)C3)ccc12 (stereo not shown) [Example 80, (3-{2-[4-(2-aminopyrimidin-5-yl)phenyl]-3-methylbutan-2-yl}-1H-indol-6-yl)(3-hydroxypyrrolidin-1-yl)methanone]	1.6 nM	> 5000 nM
Nc1ncc(-c2ccc(C3(c4c[nH]c5ccccc45)CCC3)cc2)cn1 [Example 81, 5-{4-[1-(1H-indol-3-yl)cyclobutyl]phenyl}pyrimidin-2-amine]	5.1 nM	370 nM
Nc1ncc(-c2ccc(C3(c4c[nH]c5cc(F)ccc45)CCC3)cc2)cn1 [Example 82, 5-{4-[1-(6-fluoro-1H-indol-3-yl)cyclobutyl]phenyl}pyrimidin-2-amine]	0.94 nM	160 nM
Nc1ncc(-c2ccc(C3(c4c[nH]c5ccc(F)cc45)CCC3)cc2)cn1 [Example 83, 5-{4-[1-(5-fluoro-1H-indol-3-yl)cyclobutyl]phenyl}pyrimidin-2-amine]	5 nM	460 nM
